# Reference: US9618513B2, “Compositions and methods for detecting and treating colorectal cancer” (The Regents of the University of Michigan, priority 2014, dated 2017)
# Legend:
# [1] = system: NANOG, SOX2, POU5F1 (OCT3/4); assay: Stem cell core gene expression (real-time PCR, western blotting); type: cell-based, human; details: DLD-1, IL-22 20 ng/ml
# Source text: (A), IL-22 is expressed in colon cancer tissues. IL-22 mRNA was detected by real-time PCR in colon cancer tissues and peripheral blood. *P<0.05 compared to blood, 20 colon cancer patients. (B-D), Endogenous IL-22 promotes colon carcinogenesis. Single cells (10^7) isolated from colon cancer tissue were mixed with anti-IL-22 antibody or control mAb, and then subcutaneously injected to NSG mice. Tumor growth (B), incidence (C), and animal survival (D) are shown. (P<0.05 for all, n=5 per group). (E-G) Recombinant IL-22 promotes colon carcinogenesis. DLD-1 colon cancer cells (10^5) were pre-incubated with IL-22 (20 ng/ml) for 1 hour, and then subcutaneously injected to NSG mice. […] ALDH activity was determined by FACS based on aldefluor fluorescence. […] Results are expressed as fold changes of ALDH expression. […] The mRNA of stem cell core gene was detected by real-time PCR (K) and proteins were detected by western blotting (L, M). […]
# (A, B) IL-22 is expressed by immune cells in colon cancer tissues. Different cell populations were sorted from colon cancer tissues and IL-22 expression was measured by real time PCR. […] IL-22 was detected via ELISA. […] IL-22 was detected with ELISA (D) or intracellular staining (E). […] IL-22 mRNA was detected by real time PCR (F) and protein by ELISA (G). […] IL-22 expression was quantified with real-time PCR in the migrated and non-migrated cells. […]
# [2] = system: EZH2, SUZ12, EED, CBX8; assay: PcG / PRC2 component expression (real-time PCR, western blot); type: cell-based, human
# Description: A, C. Cell proliferation was analyzed using H^3 Thymidine Incorporation. B. The level of total H3K79m2 and H3K27me3 was measured by Western Blot. D. PcG proteins of EZH2, EED, SUZ12 was increased with IL-22(20 ng/ml) treatment. E. EZH2, SUZ12 and EED was detected by Western Blot after IL-22 treated for 24 h or 48 h. F. EZH2 inhibitor DZNep reduced cell proliferation. G.H. The efficiency of EZH2 and SUZ12 knock down was tested by Western Blot. I.J. Cell proliferation was analyzed using H^3 Thymidine Incorporation after knock down of EZH2 and SUZ12. K.L. Relative expression of cyclin-dependent kinase inhibitors (p16 and p18) in shEZH2, shSUZ12 and Dznep treated cells after IL-22 treatment. M. The level of H3K27me3 in the promoter of p16 and p18 was analyzed by ChIP assay.
# A. The protein level of phosphorylated STAT3, STAT1 and STATS were activated by IL-22. B. The effect of STAT3 knock down. C. The effect of IL-22 on cell proliferation was analyzed using H^3 Thymidine Incorporation in Stat3 knock down cells. D. Knock down of STAT3 reduced the expression of EZH2 and SUZ12. E. Based on the ENCODE STAT3-ChIP-Seq data base, STAT3 occupancy on the promoter areas of SUZ12 and EED is shown. F. SUZ12/EED DNA was detected by ChIP assay using an antibody against STAT3, c-fos was used as a positive control.
# The mRNAs were quantified by real-time RT-PCR. SYBR Green Master Mix was used to detect fluorescence. Relative expression was calculated according to the Ct value with normalization to GAPDH.
# Western Blot assay was performed with specific antibodies against human Stat3, phosphorylate Stat3 (Cell Signaling), Sox2, SUZ12(Santa Cruz biotechnology), EZH2 (Abcam), H3K27me3 and H3K79me2 (Millipore).
substance,measurement,setting,value
"IL-22: recombinant IL-22 (R&D systems), cytokine interleukin-22","mRNA levels of stem cell core genes NANOG, SOX2, POU5F1 (OCT3/4)",[1]; real-time PCR,enhanced
same,"protein levels of stem cell core genes NANOG, SOX2, POU5F1 (OCT3/4)",[1]; western blotting,enhanced
same,protein level of EZH2 and SUZ12,[2]; FIG. 19D,up regulate
same,CBX8 expression,[2]; IL-22 20 ng/ml,increased
same,mRNA expression level of EED,[2]; IL-22 20 ng/ml,increased to a lesser extent
same,mRNA expression level of SUZ12,[2]; IL-22 20 ng/ml,significantly increase
same,EED and SUZ12 expression (western blotting),[2]; IL-22 24 h or 48 h,increased to a lesser extent
same,EZH2 expression (western blotting),[2]; IL-22 24 h or 48 h,increased
